The values that follow come from patent US20060105974A1, “Conjugates of photosensitizers and oligonucleotides for selective photochemiotherapy” (priority 2002, published 2006).

{Ce6} = chlorin e6 photosensitizer conjugate

For data set [1], the system named is GEO human colon cancer cells. Description: MTT cell viability assay after oligonucleotide incubation with or without irradiation. The data set is classed as cell-based. The settings on record: one day after incubation, no irradiation. As to the method:
To test the possibility of inhibiting cell growth by targeting the EGFR mRNA with Ω-sensitizers, mixed backbone oligonucleotides similar to those described in Example 1 were prepared, using methods described in Example 5. The sequences tested were:
GEO human colon cancer cells known to express approximately about 40000 functional EGFRs were purchased from ATCC (Rockville, Md., USA) and grown as described. Culture was performed in the presence of 10% fetal calf serum (FCS) and penicillin/streptomycin at 37° C. and 6% CO2 in a humid environment. For measurement purposes, the cells were subcultured in 48-well dishes (Costar 3548, Integra Biosiences, Cambridge, Mass., USA) to give 10^5 cells/well 72 hours prior to incubation with the oligonucleotides. […]
The cell viability was tested by means of an MTT assay. This technique allows quantification of cell survival after cytotoxic insult by testing the enzymatic acitivity of the mitochondria. […] The optical density of the product was quantified by its absorption at 540 nm using a 96-well ELISA plate reader (iEMS Reader MF, Labsystems, USA). […] The absorption of each residue was determined at 540 nm using the plate reader. The absorbance readings from treated cells was divided by the absorbance readings from the control cells in order to calculate the fraction of surviving cells.

In data set [2] the test system is target sequence (mam gene sequence). Description: Ω-sensitizer-induced photo-oxidation of DHR123 as a function of target concentration. Format: biochemical. The settings on record: 10 J/cm^2. The text has this: In order to test the possibility of using nano particles as the quenching moiety, oligonucleotides labeled with a photosensitive moiety at the 3′ terminus, where labeled at the 5′ terminus with amino modified gold nanoparticles. The mam gene sequence S′-CGGATGAAACTCTGAGCAATGTCTGCAGTTCTGTGAGCCAAAG-3′ (GeneBank accession No. AF015224) was coupled to the complementary stem sequences CCA AGC and GCT TGG at its 5′ and 3′ termini, respectively. The sequence was constructed using fully automated DNA synthesis as described in Example 1. The 3′ end contained an amino group, while the 5′ end was equipped with a six carbon spacer thiol group protected by a trityl moiety (Glen Research, Sterling, Va.) using standard methods. Following cleavage with 28% ammonium hydroxide, oligonucleotides were washed and purified as described above. The 3′ end photosensitive moiety labeled oligonucleotide was prepared and purified using the NHS ester of pheophorbide a as described in Example 1. Then the trityl protection group was removed by adding 0.15M silver nitrate solution to the labeled oligonucleotide for 1 hour. To this mixture 0.15M dithiothreitol (DTT) was added for 10 minutes. After spinning at 10000 rpm the supernatant was transferred to another tube. 400 pmol of this oligonucleotide were then suspended in 180 μl of water and immediately reacted with 6 nmol of monomaleimido gold particles (Ø=1.4 nm) (Nanoprobes) in aqueous 20 mM NaH2PO4, 150 mM NaCl, 1 mM ethylenediamine […] (EDTA) Buffer, pH 6.4, containing 10% isopropanol at 4° C. for 24 hours.
To the solution containing the Ω-sensitizer, 5′ (gold particle)-S—(CH2)6— CCAAGCCGGATGAAACTCTGAGCAATGTCTGCAGTTCTGTGAGCCAAAGCTTGG-(pheophorbide a)-3′, target and one base pair mismatch oligonucleotides were added at different concentrations. After adding appropriate quantities of DHR123 (see Example 1), the solutions were irradiated at 405 nm with electromagnetic radiation doses of 10 J/cm^2 and the fluorescence of rhodamine 123 was measured as described above as a function of the target concentration.

Data set [3] deals with sense oligonucleotides. Description: Photo-oxidation of DHR123 to RH123 by Ω-sensitizers with sense and mismatch oligonucleotides. The settings on record: irradiation 405±5 nm; for photochemically induced oxidation of DHR123: in the presence of the sense oligonucleotide; for reduction of oxidation capacity (photo-oxidation of DHR123), one base pair mismatch versus sense oligonucleotide / reduction of oxidation capacity (photo-oxidation of DHR123), two base pair mismatches versus sense oligonucleotide: RH123 fluorescence at 529 nm; for reduction of oxidation capacity (photo-oxidation of DHR123), two base pair mismatches versus sense oligonucleotide: two base pair mismatch sense oligonucleotide. The data set is classed as biochemical. As to the method:
(§1) The selective photosensitizing action of the different Ω-sensitizers described in Example 1 was tested in vitro against sense oligonucleotides, and sense oligonucleotides having one and two base mismatches, respectively. For this purpose oligonucleotides with sequences 5′-CAAAGGGAGGAAACCTAGCA-3′ (sense), 5′-CAAAGGGAGGTAACCTAGCA-3′ (sense 1 bp mismatch), and 5′-CAAAGGGAAGTAACCTAGCA-3′ (sense 2 bp mismatch) were synthesized using standard automated phosphoramidite chemistry. Oligonucleotides were dissolved in 2 ml of a solution containing 10 mM Tris-HCl and 2 mM MgCl2 to give a final concentration of 0.8 μM in a quartz cuvette. To this solution 1 ml Dihydrorhodamine 123 (DHR123) (Molecular Probes, Eugene, USA) (40 μM) dissolved in 10 mM Tris-HCl was added. DHR123 is a non-fluorescent molecule that in the presence of oxygenating species undergoes oxygenation to give the fluorescent dye rhodamine 123 having an absorption maximum at 507 nm and a fluorescence maximum at 529 nm. 1 ml of Ω-sensitizer (800 nM) containing solution was added and the final solution was stored in the dark at 37° C. for 20 minutes. Then the solution was irradiated at 405±5 nm with electromagnetic radiation from a filtered Hg-Arc lamp. The RH123 fluorescence intensity at 529 nm was measured every 60 seconds using a Perkin Elmer spectrofluorometer (Model LS50B, Perkin Elmer, Rotkreuz, CH)

For data set [4], the system named is sense oligonucleotide. Briefly: Intrinsic fluorescence emission of the Ω-sensitizer after excitation at 405 nm with sense and mismatch oligonucleotides. Format: binding. The conditions noted are these: excitation 405 nm; two base pair mismatch oligonucleotide versus sense oligonucleotide. As to the method:
as §1, with “1 ml of Ω-sensitizer (800 nM) containing solution was added and the final solution was stored in the dark at 37° C. for 20 minutes. Then the solution was irradiated at 405±5 nm with electromagnetic radiation from a filtered Hg-Arc lamp.” left out
Furthermore, the intrinsic fluorescence of the pheophorbide a labeled Ω-sensitizer was used to further underline the selectivity of these new photochemotherapeutic agents.

As to “5′ (chlorin e6) -GC*G A*CT GA*C TGC CA*A C*TA TG*A* ACA T*C*G C-(chlorin e6)3′ [b)]”, in data set [1], the “cell viability (mitochondrial activity, MTT) in the dark” value is on record as “only slightly reduced”.
In the case of “5′ (gold particle)-S—(CH2)6— CCAAGCCGGATGAAACTCTGAGCAATGTCTGCAGTTCTGTGAGCCAAAGCTTGG-(pheophorbide a)-3′ (CCAAGCCGGATGAAACTCTGAGCAATGTCTGCAGTTCTGTGAGCCAAAGCTTGG; hairpin, 5' gold particle via hexyl thiol, 3' pheophorbide a, partial phosphorothioate, further chemistry not given here)”, the “concentrations of the one base pair mismatched oligonucleotide at which photodynamic action can be observed” value in data set [2] (405 nm) is reported as “only very high concentrations”. For the same substance, the “concentration of the target sequence at which the RH123 fluorescence intensity reaches its maximum” value in data set [2] (irradiated at 405 nm, RH123 fluorescence at 529 nm) is listed as “about 0.5 μM”. Besides, the “RH123 fluorescence with oligonucleotide not complementary to the TCS” value in data set [2] (one base pair mismatched oligonucleotide at about 0.5 μM, 405 nm) was “no fluorescence is detectable”.
Consider “5′-(chlorin)-GCGATGCTAGGTTTCCTCCCTTTGTCGC-(chlorin)-3′ (GCGATGCTAGGTTTCCTCCCTTTGTCGC; DNA, linkages osossooooossooooooooossssso (s phosphorothioate, o phosphodiester), 5' {Ce6}, 3' {Ce6}, methylation of C not given here) [chlorin e6 labeled Ω-sensitizer]”, for which, in data set [3], the “photochemically induced oxidation of DHR123” value was “most efficient”; the “reduction of oxidation capacity (photo-oxidation of DHR123), one base pair mismatch versus sense oligonucleotide” value is “about 5 fold”; the “reduction of oxidation capacity (photo-oxidation of DHR123), two base pair mismatches versus sense oligonucleotide” value is roughly 20 fold.
“5′-(pheo a)-GCGATGCTAGGTTTCCTCCCTTTGTCGC-(pheo a)-3′ (GCGATGCTAGGTTTCCTCCCTTTGTCGC; pheophorbide a at both ends, partial phosphorothioate, pattern not given here) [pheophorbide a labeled Ω-sensitizer]”: the “fluorescence of the photosensitiser pheophorbide a (intrinsic fluorescence of the Ω-sensitizer)” value in data set [4] is “significant reduction”. Further, in data set [3], the “photochemically induced oxidation of DHR123” value is given as “most efficient”; the “reduction of oxidation capacity (photo-oxidation of DHR123), one base pair mismatch versus sense oligonucleotide” value is “about 5 fold”; the “reduction of oxidation capacity (photo-oxidation of DHR123), two base pair mismatches versus sense oligonucleotide” value was roughly 20 fold. The “RH123 fluorescence intensities achieved, compared with the chlorin e6 labeled Ω-sensitizer” value in data set [3] (fluorescence at 529 nm) is “higher fluorescence intensities”.
